For 33 substances, target mRNA inhibition results are on record in the OligoGym collection.

One series deals with IRF5. The following applies: ASO.
The target of the next series is HBV. The settings on record: ASO.

Several values for one entry are separate records, joined by “and”; a condition that tells them apart may be missing. Identical values can stand only once. After the bases stand the sugars from the 5' end (letter, count) and the backbone: PS all phosphorothioate, else s phosphorothioate and o phosphodiester by linkage. HELM strings list units from the 5' end as sugar, base in round brackets, then linkage (d deoxyribose, r ribose, m 2'-O-methyl, p phosphodiester). Methylation of C is not given here. [moe] = 2'-O-(2-methoxyethyl) (MOE); [cEt] = constrained ethyl (cEt); [sp] = phosphorothioate linkage; e = 2'-O-(2-methoxyethyl) (MOE); k = constrained ethyl (cEt); d = 2'-deoxy (DNA)

TTGAATTTTGTGACTG (sugars k3 d10 k3, PS) registered a target mRNA inhibition with IRF5 (KARPAS-229, 4 µM) of 45%.
In the series with IRF5 (KARPAS-229, 4 µM), “CAATGCAACATCCATC (sugars kkddddddddkekekk, PS)” yielded a target mRNA inhibition of 0%.
Still for that read-out and setting: to “AGGTTCTTGGACTCTC (sugars kekdddddddddeekk, PS)” belongs 0%.
On the same count and under the same terms, to “CATTCCATATACACAC (sugars kdddddddddkekeke, PS)” belongs 7%; to ACCCAATGCAACATCC (sugars k3 d10 k3, PS), 33%.
For TTGTCTAGTGTCATGG (sugars k3 d10 k3, PS), the target mRNA inhibition is 37% with IRF5 (KARPAS-229, 0.44444 µM); 60% and 70% in the series with IRF5 (KARPAS-229, 4 µM); 84% with IRF5 (KARPAS-229, 12 µM).
TTCTTGTCTAGTGTCA (sugars k3 d10 k3, PS) registered a target mRNA inhibition in the series with IRF5 (KARPAS-229, 4 µM) of 49%.
On to “RNA1{[moe](T)[sp].[moe](T)[sp].[moe](T)[sp].[moe](A)[sp].d(T)[sp].d(G)[sp].d(C)[sp].d(C)[sp].d(T)[sp].d(A)[sp].d(C)[sp].d(A)[sp].d(G)[sp].[moe](C)[sp].[moe](C)[sp].[moe](T)[sp].[moe](C)}$$$$V2.0”, for which the target mRNA inhibition in the series with HBV (HepG2, 0.07 µM) was 54% and 37%.
For “RNA1{[moe](T)[sp].[moe](C)[sp].d(C)[sp].d(G)[sp].d(C)[sp].d(A)[sp].d(G)[sp].d(T)[sp].d(A)[sp].d(T)[sp].d(G)[sp].[moe](G)[sp].[moe](A)[sp].[moe](T)[sp].[moe](C)[sp].[moe](G)}$$$$V2.0”, the target mRNA inhibition with HBV (HepG2, 0.07 µM) is 70% and 62%.
For “RNA1{[moe](G)[sp].[moe](T)[sp].[moe](G)[sp].[moe](C)[sp].[moe](A)[sp].[moe](G)[sp].d(A)[sp].d(G)[sp].d(G)[sp].d(T)[sp].d(G)[sp].d(A)[sp].d(A)[sp].d(G)[sp].d(C)[sp].[moe](G)[sp].[moe](A)}$$$$V2.0”, the target mRNA inhibition with HBV (HepG2, 0.0092593 µM) is 7%; with HBV (HepG2, 0.0277778 µM), 4%; with HBV (HepG2, 0.07 µM), 78% and 70%; with HBV (HepG2, 0.0833333 µM), 38%; in the series with HBV (HepG2, 0.25 µM) it was 76%.
Regarding “RNA1{[moe](A)[sp].[moe](C)[sp].[moe](T)[sp].[moe](A)[sp].[moe](G)[sp].d(T)[sp].d(A)[sp].d(A)[sp].d(A)[sp].d(C)[sp].d(T)[sp].d(G)[sp].d(A)[sp].d(G)[sp].[moe](C)[sp].[moe](C)[sp].[moe](A)}$$$$V2.0”, the target mRNA inhibition in the series with HBV (HepG2, 0.07 µM) is 67% and 61%.
Consider “RNA1{[moe](T)[sp].[moe](G)[sp].[moe](G)[sp].[moe](A)[sp].d(G)[sp].d(C)[sp].d(C)[sp].d(A)[sp].d(C)[sp].d(C)[sp].d(A)[sp].d(G)[sp].d(C)[sp].[moe](A)[sp].[moe](G)[sp].[moe](G)}$$$$V2.0”, for which, in the series with HBV (HepG2, 0.07 µM), the target mRNA inhibition was 47% and 35%.
Same read-out and setting: to “RNA1{[moe](C)[sp].[moe](G)[sp].d(A)[sp].d(A)[sp].d(C)[sp].d(C)[sp].d(A)[sp].d(C)[sp].d(T)[sp].d(G)[sp].d(A)[sp].[moe](A)[sp].[moe](C)[sp].[moe](A)[sp].[moe](A)[sp].[moe](A)}$$$$V2.0” belongs 37% and 23%; to “RNA1{[moe](G)[sp].[moe](C)[sp].[moe](A)[sp].[moe](G)[sp].[moe](T)[sp].d(A)[sp].d(T)[sp].d(G)[sp].d(G)[sp].d(A)[sp].d(T)[sp].d(C)[sp].d(G)[sp].d(G)[sp].[moe](C)[sp].[moe](A)}$$$$V2.0”, 67% and 61%; to “RNA1{[moe](A)[sp].[moe](T)[sp].[moe](G)[sp].[moe](A)[sp].[moe](G)[sp].d(G)[sp].d(C)[sp].d(A)[sp].d(T)[sp].d(A)[sp].d(G)[sp].d(C)[sp].d(A)[sp].d(G)[sp].[moe](C)[sp].[moe](A)[sp].[moe](G)}$$$$V2.0”, 50% and 44%.
For “RNA1{[moe](A)[sp].[moe](G)[sp].[moe](T)[sp].[moe](T)[sp].[moe](C)[sp].d(C)[sp].d(G)[sp].d(C)[sp].d(A)[sp].d(G)[sp].d(T)[sp].d(A)[sp].d(T)[sp].d(G)[sp].[moe](G)[sp].[moe](A)}$$$$V2.0”, in the series with HBV (HepG2, 0.07 µM), the target mRNA inhibition is 61% and 40%.
“RNA1{[moe](G)[sp].[moe](A)[sp].d(G)[sp].d(T)[sp].d(T)[sp].d(C)[sp].d(C)[sp].d(G)[sp].d(C)[sp].d(A)[sp].d(G)[sp].[moe](T)[sp].[moe](A)[sp].[moe](T)[sp].[moe](G)[sp].[moe](G)}$$$$V2.0”: the target mRNA inhibition with HBV (HepG2, 0.07 µM) was 52% and 45%.
On to “RNA1{[moe](A)[sp].[moe](C)[sp].d(T)[sp].d(A)[sp].d(G)[sp].d(T)[sp].d(A)[sp].d(A)[sp].d(A)[sp].d(C)[sp].d(T)[sp].[moe](G)[sp].[moe](A)[sp].[moe](G)[sp].[moe](C)[sp].[moe](C)}$$$$V2.0”, for which, in the series with HBV (HepG2, 0.07 µM), the target mRNA inhibition is 57% and 47%.
For the substance “RNA1{[moe](G)[sp].[moe](G)[sp].[cEt](C)[sp].[cEt](A)[sp].d(T)[sp].d(A)[sp].d(G)[sp].d(C)[sp].d(A)[sp].d(G)[sp].d(C)[sp].d(A)[sp].d(G)[sp].[moe](G)[sp].[cEt](A)[sp].[moe](T)[sp].[moe](G)}$$$$V2.0”, the target mRNA inhibition with HBV (HepG2, 0.009375 µM) was 27%; with HBV (HepG2, 0.01875 µM) it was 29%; in the series with HBV (HepG2, 0.0375 µM), 45%; in the series with HBV (HepG2, 0.075 µM), 56%; with HBV (HepG2, 0.15 µM) it was 78%; in the series with HBV (HepG2, 0.3 µM), 84%.
Turning to “RNA1{[moe](A)[sp].[cEt](G)[sp].[cEt](A)[sp].d(T)[sp].d(G)[sp].d(A)[sp].d(G)[sp].d(G)[sp].d(C)[sp].d(A)[sp].d(T)[sp].d(A)[sp].d(G)[sp].[cEt](C)[sp].[cEt](A)[sp].[moe](G)}$$$$V2.0”, the target mRNA inhibition with HBV (HepG2, 0.07 µM) is 59% and 56%.
Still for that read-out and setting: to “RNA1{[moe](A)[sp].[moe](C)[sp].[moe](T)[sp].[moe](G)[sp].[moe](G)[sp].d(A)[sp].d(G)[sp].d(C)[sp].d(C)[sp].d(A)[sp].d(C)[sp].d(C)[sp].d(A)[sp].d(G)[sp].[moe](C)[sp].[moe](A)}$$$$V2.0” belongs 54% and 48%; to “RNA1{[moe](T)[sp].[moe](C)[sp].[moe](C)[sp].[moe](G)[sp].[moe](C)[sp].d(A)[sp].d(G)[sp].d(T)[sp].d(A)[sp].d(T)[sp].d(G)[sp].d(G)[sp].d(A)[sp].d(T)[sp].[moe](C)[sp].[moe](G)}$$$$V2.0”, 75% and 59%.
With “RNA1{[moe](G)[sp].[moe](G)[sp].[moe](T)[sp].[moe](G)[sp].[moe](A)[sp].d(A)[sp].d(G)[sp].d(C)[sp].d(G)[sp].d(A)[sp].d(A)[sp].d(G)[sp].d(T)[sp].d(G)[sp].[moe](C)[sp].[moe](A)[sp].[moe](C)}$$$$V2.0”, in the series with HBV (HepG2, 0.07 µM), the target mRNA inhibition is 64% and 66%.
“RNA1{[moe](T)[sp].[cEt](T)[sp].d(C)[sp].d(C)[sp].d(G)[sp].d(C)[sp].d(A)[sp].d(G)[sp].d(T)[sp].d(A)[sp].d(T)[sp].d(G)[sp].[cEt](G)[sp].[moe](A)[sp].[cEt](T)[sp].[moe](C)}$$$$V2.0”: in the series with HBV (HepG2, 0.07 µM), the target mRNA inhibition is 50% and 39%.
“RNA1{[moe](G)[sp].[moe](A)[sp].[moe](A)[sp].[moe](C)[sp].d(T)[sp].d(G)[sp].d(G)[sp].d(A)[sp].d(G)[sp].d(C)[sp].d(C)[sp].d(A)[sp].d(C)[sp].[moe](C)[sp].[moe](A)[sp].[moe](G)}$$$$V2.0”: the target mRNA inhibition in the series with HBV (HepG2, 0.07 µM) was 46% and 53%.
Same read-out and setting: to “RNA1{[moe](C)[sp].[moe](C)[sp].[moe](A)[sp].d(A)[sp].d(T)[sp].d(T)[sp].d(T)[sp].d(A)[sp].d(T)[sp].d(G)[sp].d(C)[sp].d(C)[sp].d(T)[sp].[cEt](A)[sp].[cEt](C)[sp].[cEt](A)}$$$$V2.0” belongs 37% and 34%; to “RNA1{[moe](C)[sp].[moe](A)[sp].d(A)[sp].d(T)[sp].d(T)[sp].d(T)[sp].d(A)[sp].d(T)[sp].d(G)[sp].d(C)[sp].d(C)[sp].[moe](T)[sp].[moe](A)[sp].[moe](C)[sp].[moe](A)[sp].[moe](G)}$$$$V2.0”, 27% and 25%.
“RNA1{[moe](C)[sp].[moe](A)[sp].[moe](G)[sp].[moe](A)[sp].[moe](G)[sp].[moe](G)[sp].d(T)[sp].d(G)[sp].d(A)[sp].d(A)[sp].d(G)[sp].d(C)[sp].d(G)[sp].d(A)[sp].d(A)[sp].[moe](G)[sp].[moe](T)}$$$$V2.0”: in the series with HBV (HepG2, 0.07 µM), the target mRNA inhibition is 81% and 58%.
Take “RNA1{[moe](G)[sp].[moe](A)[sp].[moe](G)[sp].d(A)[sp].d(A)[sp].d(G)[sp].d(T)[sp].d(C)[sp].d(C)[sp].d(A)[sp].d(C)[sp].d(C)[sp].[moe](A)[sp].[moe](C)[sp].[moe](G)[sp].[moe](A)[sp].[moe](G)}$$$$V2.0”: in the series with HBV (HepG2, 0.07 µM), the target mRNA inhibition was 31% and 28%.
For the substance “RNA1{[moe](C)[sp].[moe](C)[sp].[moe](G)[sp].[moe](C)[sp].d(A)[sp].d(G)[sp].d(T)[sp].d(A)[sp].d(T)[sp].d(G)[sp].d(G)[sp].d(A)[sp].d(T)[sp].[moe](C)[sp].[moe](G)[sp].[moe](G)[sp].[moe](C)}$$$$V2.0”, the target mRNA inhibition was 0% in the series with HBV (HepG2, 0.0092593 µM); 38% in the series with HBV (HepG2, 0.0277778 µM); 87% and 74% in the series with HBV (HepG2, 0.07 µM); 69% in the series with HBV (HepG2, 0.0833333 µM); 86% with HBV (HepG2, 0.25 µM).
For the substance “RNA1{[moe](A)[sp].[moe](C)[sp].[moe](T)[sp].[moe](G)[sp].[moe](G)[sp].d(A)[sp].d(G)[sp].d(C)[sp].d(C)[sp].d(A)[sp].d(C)[sp].d(C)[sp].d(A)[sp].d(G)[sp].[moe](C)[sp].[moe](A)[sp].[moe](G)}$$$$V2.0”, in the series with HBV (HepG2, 0.07 µM), the target mRNA inhibition was 46% and 39%.
On the same count and under the same terms, to “RNA1{[moe](A)[sp].[moe](T)[sp].[moe](T)[sp].[moe](T)[sp].[moe](A)[sp].d(T)[sp].d(G)[sp].d(C)[sp].d(C)[sp].d(T)[sp].d(A)[sp].d(C)[sp].d(A)[sp].d(G)[sp].[moe](C)[sp].[moe](C)}$$$$V2.0” belongs 47% and 41%.
“RNA1{[moe](G)[sp].[cEt](C)[sp].[cEt](A)[sp].d(G)[sp].d(A)[sp].d(G)[sp].d(G)[sp].d(T)[sp].d(G)[sp].d(A)[sp].d(A)[sp].d(G)[sp].d(C)[sp].[cEt](G)[sp].[cEt](A)[sp].[moe](A)}$$$$V2.0” yielded a target mRNA inhibition with HBV (HepG2, 0.07 µM) of 70%.
